We go through 6 molecules from patent US11446315B2, “Enhancement of CD47 blockade therapy by proteasome inhibitors” (PF Argentum IP Holdings LLC, priority 2016, dated 2022).

What all share (format): cell-based, human
Assay [1] concerns SU-DHL-6 diffuse large cell lymphoma (DLBCL) cell line. Briefly: Macrophage phagocytosis assay, SU-DHL-6 tumor cells pre-cultured with proteasome inhibitor (FIGS. 3A-3F). The note with it: SU-DHL-6 cultured 48 hours in bortezomib (10 nM), carfilzomib (10 nM) or ixazomib (25 nM); CD47 blockade drug at 100 nM, 2 hours co-culture; untreated vs proteasome inhibitor treated tumor cells, unpaired t-test. The protocol: (§1) FIGS. 3A-3F show the effect of proteasome inhibition on phagocytosis mediated by CD47 blockade, from an experiment supplemental to that represented in FIGS. 1A-1B and 2A-2B. The diffuse large cell lymphoma (DLBCL) cell line SU-DHL-6 and the multiple myeloma (MM) cell line MM1.S were cultured in the presence or absence of the proteasome inhibitors bortezomib (10 nM), carfilzomib (10 nM) or ixazomib (25 nM) for 48 hours. Cells were thereafter washed; macrophages and SIRPαFc proteins, CD47 monoclonal antibody (CD47 mAb) or Control Fc (at 100 nM) were added, and the mixture was then subjected to the phagocytosis assay as described infra.
(§2) To generate the results represented in FIGS. 3A-3F, macrophages were prepared from human peripheral blood mononuclear cells (PBMCs) obtained from healthy donors (BioreclamationIVT); informed consent was obtained from all donors. CD14+ monocytes were isolated by positive selection using the EasySep® human monocyte isolation kit (Stemcell Technologies). Monocytes were differentiated into macrophages by culturing the cells in X-VIVO 15 media (Lonza) supplemented with human m-CSF (PeproTech) for 10 days. Macrophages were primed with human IFNγ (PeproTech) one day prior to the phagocytosis assay. 48 hours prior to the phagocytosis assay, bortezomib (10 nM), carfilzomib (10 nM) or ixazomib (25 nM) were added to tumor cells. On the day of the phagocytosis assay, tumor cells (MM1.S or SU-DHL-6) were labeled with Violet Proliferation Dye 450 (BD Biosciences) and cultured with IFNγ-primed macrophages. Macrophages and tumor cells were co-cultured for 2 hours in the presence of 100 nM SIRPαFc (V region of human SIRPα variant 2 fused with IgG1 Fc), SIRPαFc (V region of human SIRPα variant 2 fused with IgG4 Fc), vSIRPαFc (high affinity CV1 variant of V region of human SIRPα fused with mutated IgG4) [SEQ ID No. 12], CD47 monoclonal antibody B6H12 [SEQ ID Nos. 13 and 14] or Control Fc (wild type human IgG4 with stabilized hinge). Cells were subsequently stained with a viability dye, APC-conjugated anti-human CD14 (61D3, eBioscience), and PE-conjugated anti-human CD11b (ICRF44, eBioscience). Macrophages were identified as live, single, CD14+CD11b+ cells. Doublets were excluded by SSC-W and SSC-H discrimination. Percent phagocytosis was assessed as the percent of macrophages that were VPD450+. Unpaired t-tests comparing the percentage of phagocytosis of untreated vs proteasome inhibitor treated tumor cells were performed (*P≤0.05, **P≤0.01, ***P≤0.001).

Assay [2] relates to MM1.S multiple myeloma (MM) cell line. Briefly: Macrophage phagocytosis assay, MM1.S tumor cells pre-cultured with proteasome inhibitor (FIGS. 3A-3F). The note with it: MM1.S cultured 48 hours in bortezomib (10 nM), carfilzomib (10 nM) or ixazomib (25 nM); CD47 blockade drug at 100 nM, 2 hours co-culture; untreated vs proteasome inhibitor treated tumor cells, unpaired t-test. The protocol:
as §1, §2

Assay [3] relates to MM1s multiple myeloma cell line. Briefly: Macrophage phagocytosis assay, MM1s tumor cells pre-cultured with proteasome inhibitor (FIGS. 1A, 2A). The protocol:
(§3) FIGS. 1A and 1B show results when the multiple myeloma cell lines MM1s and H929 are cultured in the presence of the proteasome inhibitor bortezomib (at either 1, 5 or 10 nM) for 48 hours. The 0 result represents phagocytosis of cells that were not treated with bortezomib. Cells are then washed; macrophages and SIRPαFc (at 1, 5 or 100 nM) or Control Fc are added and the mixture is then subjected to the phagocytosis assay described herein.
(§4) FIGS. 2A and 2B show results from an experiment in which bortezomib is replaced by the proteasome inhibitor carfilzomib, which is then investigated as described in FIGS. 1A-1B. The 0 result represents phagocytosis of cells that were not treated with carfilzomib.
(§5) To generate the results represented in FIGS. 1A-1B and 2A-2B, heparinized whole blood was obtained from normal healthy human donors (Biological Specialty Corporation) and informed consent was obtained from all donors. Peripheral blood mononuclear cells (PBMCs) were isolated over Ficoll-Paque Plus density gradient (GE Healthcare) and CD14+ monocytes were isolated from PBMCs by positive selection using CD14 antibody-coated MicroBead separation (Miltenyi Biotec). […] Phagocytosis was assessed as % VPD450+ cells of live, single CD14+CD11b+macrophages by flow cytometry. […]

Assay [4] deals with H929 multiple myeloma cell line. In words: Macrophage phagocytosis assay, H929 tumor cells pre-cultured with proteasome inhibitor (FIGS. 1B, 2B). On the procedure:
as §3, §4, §5

“SIRPαFc (V region of human SIRPα variant 2 fused with IgG4 Fc): V region of human SIRPα variant 2 fused with IgG4 Fc”: the “Percent phagocytosis mediated by CD47 blockade (percent of macrophages VPD450+)” value (from here on “Percent phagocytosis mediated”) in assay [1] and in assay [2] was “significant increase in phagocytosis” each time.
Consider `CC(C)C[C@H](NC(=O)CNC(=O)c1cc(Cl)ccc1Cl)B(O)O` [ixazomib], for which the “Percent phagocytosis mediated” value in assay [1] and in assay [2] was “significantly increased SIRPαFc-mediated phagocytosis or CD47 mAb-mediated phagocytosis” each time.
Consider `CC(C)C[C@H](NC(=O)[C@H](CCc1ccccc1)NC(=O)CN1CCOCC1)C(=O)N[C@@H](Cc1ccccc1)C(=O)N[C@@H](CC(C)C)C(=O)[C@@]1(C)CO1` [carfilzomib], for which the “SIRPαFc-mediated phagocytosis (% VPD450+ of live, single CD14+CD11b+ macrophages)” value in assay [3] (MM1s cultured in 10 nM carfilzomib for 48 hours, at all concentrations of SIRPαFc tested (1, 5 or 100 nM), versus cells not treated with carfilzomib) was “significant increase in SIRPαFc-mediated phagocytosis”; in assay [4] (H929 cultured in 10 nM carfilzomib for 48 hours, at all concentrations of SIRPαFc tested (1, 5 or 100 nM), versus cells not treated with carfilzomib) it was “significant increase in SIRPαFc-mediated phagocytosis”. In addition, the “Percent phagocytosis mediated” value in assay [1] and in assay [2] was “significantly increased SIRPαFc-mediated phagocytosis or CD47 mAb-mediated phagocytosis” each time.
Turning to `CC(C)C[C@H](NC(=O)[C@H](Cc1ccccc1)NC(=O)c1cnccn1)B(O)O` [bortezomib], the “SIRPαFc-mediated phagocytosis (% VPD450+ of live, single CD14+CD11b+ macrophages)” value in assay [3] (MM1s cultured in bortezomib (1, 5 or 10 nM) for 48 hours, then macrophages and SIRPαFc (1, 5 or 100 nM), versus cells not treated with bortezomib) was “increased SIRPαFc-mediated phagocytosis”; in assay [4] (H929 cultured in bortezomib (1, 5 or 10 nM) for 48 hours, then macrophages and SIRPαFc (1, 5 or 100 nM), versus cells not treated with bortezomib) it was “increased SIRPαFc-mediated phagocytosis”. The “Percent phagocytosis mediated” value in assay [1] and in assay [2] was “significantly increased SIRPαFc-mediated phagocytosis or CD47 mAb-mediated phagocytosis” in each case.

B1: CD47 mAb: CD47 monoclonal antibody B6H12, variable regions SEQ ID Nos. 13 and 14 (antibody, V domains shown)
VH: EVQLVESGGDLVKPGGSLKLSCAASGFTFSGYGMSWVRQTPDKRLEWVATITSGGTYTYYPDSVKGRFTISRDNAKNTLYLQIDSLKSEDTAIYFCARSLAGNAMDYWGQGTSVTVSS
VL: DIVMTQSPATLSVTPGDRVSLSCRASQTISDYLHWYQQKSHESPRLLIKFASQSISGIPSRFSGSGSGSDFTLSINSVEPEDVGVYYCQNGHGFPRTFGGGTKLEIK
modifications: Murine
With B1, the “Percent phagocytosis mediated” value in assay [1] and in assay [2] was “significant increase in phagocytosis” throughout.

B2: vSIRPαFc: high affinity CV1 variant of V region of human SIRPα fused with mutated IgG4, SEQ ID No. 12 (protein, listed as Homo sapiens)
chain: EEELQIIQPDKSVSVAAGESAILHCTITSLFPVGPIQWFRGAGPARVLIYNQRQGPFPRVTTVSETTKRENMDFSISISNITPADAGTYYCIKFRKGSPDTEFKSGAGTELSVRAKPSESKYGPPCPPCPAPPVAGPSVFLFPPKPKDTLMISRTPEVTCVVVDVSQEDPEVQFNWYVDGVEVHNAKTKPREEQFNSTYRVVSVLTVLHQDWLNGKEYKCKVSNKGLPSSIEKTISKAKGQPREPQVYTLPPSQEEMTKNQVSLTCLVKGFYPSDIAVEWESNGQPENNYKTTPPVLDSDGSFFLYSRLTVDKSRWQEGNVFSCSVMHEALHNHYTQKSLSLSLGK
Turning to B2, the “Percent phagocytosis mediated” value in assay [1] and in assay [2] was “significant increase in phagocytosis” each time.
